Measured values published in the supplement of paper PMC4380931.

Experiments:
MZ7MEL = test: relative viability (cell count relative to DMSO-treated control) (fraction of DMSO control); higher = more viable cells / less drug effect
Experimental: (§1)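 BRAF V600E/D melanoma cell lines were seeded in 96-well plates, treated in 4 replicates with seven doses (3.16 nM to 3.16 uM) of RAF/MEK inhibitors for 24, 48 or 72 h, and stained with Hoechst 33342 (nuclei) and DEVD-NucView488 caspase-3 substrate. Plates were imaged on an Operetta. Relative viability is the cell count normalised to a DMSO-treated control; apoptosis fraction is the fraction of NucView488-positive nuclei.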

WM115 = test: as above
Experimental: as §1

C32 [1] = test: as above
Experimental: as §1

MMACSF = test: apoptotic fraction of cells (caspase-3 NucView488 positive); higher = more apoptosis
Experimental: as §1

SKMEL28 = test: as above
Experimental: as §1

C32 [2] = test: as above
Experimental: as §1

CN(C)CCOc1ccc(-c2nc(-c3ccncc3)c(-c3ccc4c(c3)CC/C4=N\O)[nH]2)cc1
Conditions | apoptotic fraction of cells, C32 [2] | apoptotic fraction of cells, MMACSF | apoptotic fraction of cells, SKMEL28 | relative viability, C32 [1] | relative viability, MZ7MEL | relative viability, WM115
24 h, 0.00316 µM | 0.0901 | 0.0448 | – | 1.07 | 1.1 | 1.06
24 h, 0.01 µM | 0.138 | 0.0421 | – | 1.05 | 1.18 | 1.33
24 h, 0.0316 µM | 0.159 | 0.0446 | – | 1.09 | 1.1 | 1.36
24 h, 0.1 µM | 0.194 | 0.0491 | – | 1.05 | 1.09 | 1.4
24 h, 0.316 µM | 0.225 | 0.0475 | – | 0.971 | 1.18 | 1.35
24 h, 1 µM | 0.24 | 0.048 | – | 0.842 | 1.13 | 1.15
24 h, 3.16 µM | 0.271 | 0.0414 | – | 0.779 | 0.887 | 1.28
48 h, 0.00316 µM | 0.0832 | 0.0482 | 0.0386 | 1.2 | 1.07 | 1.31
48 h, 0.01 µM | 0.121 | 0.0408 | 0.034 | 1.04 | 0.968 | 1.47
48 h, 0.0316 µM | 0.0893 | 0.041 | 0.0305 | 1.03 | 0.991 | 1.54
48 h, 0.1 µM | 0.077 | 0.0486 | 0.0338 | 1.06 | 0.874 | 1.44
48 h, 0.316 µM | 0.189 | 0.0567 | 0.042 | 0.858 | 0.67 | 1.42
48 h, 1 µM | 0.38 | 0.0889 | 0.0432 | 0.551 | 0.608 | 0.972
48 h, 3.16 µM | 0.524 | 0.0951 | 0.0466 | 0.4 | 0.545 | 0.683
72 h, 0.00316 µM | 0.0657 | 0.0417 | 0.0377 | 1.1 | 1.23 | 1.03
72 h, 0.01 µM | 0.0532 | 0.0427 | 0.0332 | 1.19 | 1.14 | 1.02
72 h, 0.0316 µM | 0.0299 | 0.0345 | 0.0271 | 1.08 | 0.834 | 0.889
72 h, 0.1 µM | 0.0807 | 0.0358 | 0.0305 | 0.762 | 0.614 | 0.773
72 h, 0.316 µM | 0.274 | 0.0666 | 0.0316 | 0.436 | 0.537 | 0.683
72 h, 1 µM | 0.474 | 0.155 | 0.0381 | 0.276 | 0.414 | 0.584
72 h, 3.16 µM | 0.542 | 0.224 | 0.259 | 0.209 | 0.387 | 0.573
